The record followed here is EP3381898A1, “SYMMETRICAL TRIS-ARYL-AMIDE DERIVATIVES AND THEIR USE AS ANTI-HEPARANASE” (priority 2017, dated 2018).

Structures can show the parent of a compound that is named as a salt.

Broadly, the IC50 is the concentration at which inhibition is half-maximal.

The target of the test is T1, heparanase (Homo sapiens, UniProt Q9Y251).
T1 sequence (Q9Y251 158-543 limits assumed): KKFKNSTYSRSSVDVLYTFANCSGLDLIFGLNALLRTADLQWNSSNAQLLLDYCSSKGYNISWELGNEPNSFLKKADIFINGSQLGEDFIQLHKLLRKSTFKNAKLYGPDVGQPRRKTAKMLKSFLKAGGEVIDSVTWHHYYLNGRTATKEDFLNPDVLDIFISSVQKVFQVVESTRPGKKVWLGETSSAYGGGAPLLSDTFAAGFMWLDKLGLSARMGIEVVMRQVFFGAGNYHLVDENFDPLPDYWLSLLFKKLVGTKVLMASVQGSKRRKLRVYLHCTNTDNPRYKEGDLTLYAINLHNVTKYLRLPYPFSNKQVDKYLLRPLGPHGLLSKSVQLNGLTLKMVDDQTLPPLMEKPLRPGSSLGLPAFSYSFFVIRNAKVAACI
T1 sequence (Q9Y251 36-109 limits assumed): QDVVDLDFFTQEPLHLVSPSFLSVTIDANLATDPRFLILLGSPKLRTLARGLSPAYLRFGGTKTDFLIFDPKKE
Kind of test: AGA*IA assay: heparanase-catalyzed fondaparinux cleavage, colorimetric (WST-1). The settings on record: Table 1; range activity classes, AGA*IA test on Fondaparinux; read-out: AGAIA assay IC50. Type of test: biochemical. The protocol:
All compounds were tested in a simple, accurate and robust microplate assay based on the cleavage of the synthetic heparin fragment, the pentasaccharide Fondaparinux (AGA*IA). This assay was originally developed by Hammond and coworkers (Hammond E, Li CP, Ferro V. Development of a colorimetric assay for heparanase activity suitable for kinetic analysis and inhibitor screening. Anal. Biochem. 396(1), 112-116 (2010)), where Fondaparinux corresponds to the methyl glycoside of the antithrombin III (ATIII)-activating pentasaccharide sequence of heparin. Fondaparinux is cleaved by heparanase to generate a reducing disaccharide, which can be quantitatively measured via a colorimetric or a fluorescence assay, the last by the fluorescent sensor polymer-H [Schiemann S, Lühn S, Alban S. Development of both colorimetric and fluorescence heparinase activity assays using fondaparinux as substrate. Anal. Biochem. 427(1), 82-89 (2012)].
The assay measures the appearance of the disaccharide product of heparanase-catalyzed fondaparinux cleavage colorimetrically using the tetrazolium salt WST-1. Assay was essentially performed as described with minor modifications. Briefly, NUNC ELISA 96-well plates were pre-treated with a solution of 4% BSA (bovin serum albumin) in phosphate-buffered saline containing 0.05% Tween 20 (PBST), for 2 h at 37°C, then washed three times with PBST, dried by tapping on paper towel and stored at -20°C. Before use, once again, the plates were washed with PBST.
Assay was carried out with 100 µl/well of assay solution containing 40 mM sodium acetate buffer (pH 5.0), 100 µM fondaparinux, 2.5 nM heparanase and serial dilutions of test compounds (tested in triplicate). Plates were sealed with adhesive tape and incubated, in the dark, for 3 h at 37°C, followed by development with 1.69 mM of the tetrazolium salt WST-1 solution in 0.1 M NaOH, for 1 h at 60°C. Then, the absorbance at 560 nm was measured through a microplate reader (Victor 3, Perkin Elmer).
Finally, the measurements were corrected by subtracting both the reagent background and the inner absorbance value of test compound.
`CC(C)CC(NC(=O)Cc1cccc(NC(=O)c2cc(NC(=O)c3cccc(NC(=O)Nc4cccc(C(=O)Nc5cc(C(=O)Nc6cccc(CC(=O)NC(CC(C)C)C(=O)O)c6)n(C)c5)c4)c3)cn2C)c1)C(=O)O` (stereo not drawn) [Compound 12a, 2,2'-{carbonylbis[imino-3,1-phenylenecarbonylimino(1-methyl-1H-pyrrole-4,2-diyl)carbonylimino-3,1-phenylene(1-oxoethane-2,1-diyl)imino]}bis(4-methylpentanoic acid)]: the IC50 is 1 to 20 µM.
The result for `Cn1cc(NC(=O)c2cccc(NC(=O)Nc3cccc(C(=O)Nc4cc(C(=O)Nc5cccc(CC(=O)N[C@@H](CCCCN)C(=O)O)c5)n(C)c4)c3)c2)cc1C(=O)Nc1cccc(CC(=O)N[C@@H](CCCCN)C(=O)O)c1` [Compound 12c, 5,5'-{carbonylbis[imino-3,1-phenylenecarbonylimino(1-methyl-1H-pyrrole-4,2-diyl)carbonylimino-3,1-phenylene(1-oxoethane-2,1-diyl)imino]}bis(1-aminium-6-hexanoic acid) trifluoroacetate salt] reads 1 to 20 µM.
The value for `CC(NC(=O)Cc1cccc(NC(=O)c2cc(NC(=O)c3cccc(NC(=O)Nc4cccc(C(=O)Nc5cc(C(=O)Nc6cccc(CC(=O)NC(C)C(=O)O)c6)n(C)c5)c4)c3)cn2C)c1)C(=O)O` (stereo not drawn) [Compound 12d, 2,2'-{carbonylbis[imino-3,1-phenylenecarbonylimino(1-methyl-1H-pyrrole-4,2-diyl)carbonylimino-3,1-phenylene(1-oxoethane-2,1-diyl)imino]}dipropanoic acid] was 1 to 20 µM; that for `Cn1cc(NC(=O)c2cccc(NC(=O)Nc3cccc(C(=O)Nc4cc(C(=O)Nc5cccc(CC(=O)N[C@@H](CCC(=O)O)C(=O)O)c5)n(C)c4)c3)c2)cc1C(=O)Nc1cccc(CC(=O)N[C@@H](CCC(=O)O)C(=O)O)c1` [Compound 12f, 2,2'-{carbonylbis[imino-3,1-phenylenecarbonylimino(1-methyl-1H-pyrrole-4,2-diyl)carbonylimino-3,1-phenylene(1-oxoethane-2,1-diyl)imino]}dipentandioic acid] was 1 to 20 µM.
Consider `Cn1cc(NC(=O)c2cccc(NC(=O)Nc3cccc(C(=O)Nc4cc(C(=O)Nc5cccc(CC(=O)O)c5)n(C)c4)c3)c2)cc1C(=O)Nc1cccc(CC(=O)O)c1` [Compound 12h, 2,2'-(((4,4'-((3,3'-(Carbonylbis(azanediyl))bis(benzoyl))bis(azanediyl))bis(1-methyl-1H-pyrrole-4,2-diyl-2-carbonyl))bis(azanediyl))bis(3,1-phenylene))diacetic acid], for which the IC50 lay within 1 to 20 µM.
In the case of `Cn1cc(NC(=O)c2cccc(NC(=O)Nc3cccc(C(=O)Nc4cc(C(=O)Nc5ccc(CC(=O)O)cc5)n(C)c4)c3)c2)cc1C(=O)Nc1ccc(CC(=O)O)cc1` [Compound 12j, 2,2'-(((4,4'-((3,3'-(carbonylbis(azanediyl))bis(benzoyl))bis(azanediyl))bis(1-methyl-1H-pyrrole-2,2'-carbonyl))bis(azanediyl))bis(4,1-phenylene))diacetic acid], the IC50 fell in the range of 1 to 20 µM.
For the molecule `Cn1cc(NC(=O)c2cccc(NC(=O)Nc3cccc(C(=O)Nc4cc(C(=O)Nc5cccc(CC(=O)NCC(=O)NCC(=O)O)c5)n(C)c4)c3)c2)cc1C(=O)Nc1cccc(CC(=O)NCC(=O)NCC(=O)O)c1` [Compound 13b, Disodium 2,2'-{carbonylbis[imino-3,1-phenylenecarbonylimino(1-methyl-1H-pyrrole-4,2-diyl)carbonylimino-3,1-phenylene(1-oxoethane-2,1-diyl)imino(1-oxoethane-2,1-diyl)imino]}diethanoate salt], the IC50 was in the range of 1 to 20 µM.
The value for `CC(C)CC(NC(=O)Cc1cccc(NC(=O)c2cc(NC(=O)c3cc(NC(=O)Nc4cc(C(=O)Nc5cc(C(=O)Nc6cccc(CC(=O)NC(CC(C)C)C(=O)O)c6)n(C)c5)n(C)c4)cn3C)cn2C)c1)C(=O)O` (stereo not drawn) [Compound 17a, 2,2'-{carbonylbis[imino(1-methyl-1H-pyrrole-4,2-diyl)carbonylimino(1-methyl-1H-pyrrole-4,2-diyl)carbonylimino-3,1-phenylene(1-oxoethane-2,1-diyl)imino]}bis(4-methylpentanoic acid)] was 1 to 20 µM; that for `C[C@H](NC(=O)Cc1cccc(NC(=O)c2cc(NC(=O)c3cc(NC(=O)Nc4cc(C(=O)Nc5cc(C(=O)Nc6cccc(CC(=O)N[C@@H](C)C(=O)O)c6)n(C)c5)n(C)c4)cn3C)cn2C)c1)C(=O)O` [Compound 17d, 2,2'-{carbonylbis[imino(1-methyl-1H-pyrrole-4,2-diyl)carbonylimino(1-methyl-1H-pyrrole-4,2-diyl)carbonylimino-3,1-phenylene(1-oxoethane-2,1-diyl)imino]}dipropanoic acid] was 1 to 20 µM; that for `Cn1cc(NC(=O)Nc2cc(C(=O)Nc3cc(C(=O)Nc4cccc(CC(=O)N[C@@H](CCC(=O)O)C(=O)O)c4)n(C)c3)n(C)c2)cc1C(=O)Nc1cc(C(=O)Nc2cccc(CC(=O)N[C@@H](CCC(=O)O)C(=O)O)c2)n(C)c1` [Compound 17f, 2,2'-{carbonylbis[imino-3,1-phenylenecarbonylimino(1-methyl-1H-pyrrole-4,2-diyl)carbonylimino-3,1-phenylene(1-oxoethane-2,1-diyl)imino]}dipentandioic acid] was 1 to 20 µM.
As to `Cn1cc(NC(=O)Nc2cc(C(=O)Nc3cc(C(=O)Nc4cccc(CC(=O)N[C@@H](CCCCN)C(=O)O)c4)n(C)c3)n(C)c2)cc1C(=O)Nc1cc(C(=O)Nc2cccc(CC(=O)N[C@@H](CCCCN)C(=O)O)c2)n(C)c1` [Compound 35c, (2S,2'S)-2,2'-((2,2'-(((4,4'-((4,4'-(carbonylbis(azanediyl))bis(1-methyl-1H-pyrrole-4,2-diyl-2-carbonyl))bis(azanediyl))bis(1-methyl-1H-pyrrole-4,2-diyl-2-carbonyl))bis(azanediyl))bis(3,1-phenylene))bis(acetyl))bis(azanediyl))bis(6-aminohexanoic acid) dihydrochloride], the IC50 lay in the range of 1 to 20 µM.
Turning to `CC(C)C[C@H](NC(=O)Cc1cccc(NC(=O)c2cc(NC(=O)c3ccc(Oc4ccc(C(=O)Nc5cc(C(=O)Nc6cccc(CC(=O)N[C@@H](CC(C)C)C(=O)O)c6)n(C)c5)cc4)cc3)cn2C)c1)C(=O)O` [Compound 36a, (2S,2'S)-2,2'-((2,2'-(((4,4'-((4,4'-Oxybis(benzoyl))bis(azanediyl))bis(1-methyl-1H-pyrrole-2,2'-carbonyl))bis(azanediyl))bis(3,1-phenylene))bis(acetyl))bis(azanediyl))bis(4-methylpentanoic acid)], the IC50 was in the range of 1 to 20 µM.
Take `Cn1cc(NC(=O)c2ccc(Oc3ccc(C(=O)Nc4cc(C(=O)Nc5cccc(CC(=O)NCC(=O)O)c5)n(C)c4)cc3)cc2)cc1C(=O)Nc1cccc(CC(=O)NCC(=O)O)c1` [Compound 36b, 2,2'-((2,2'-(((4,4'-((4,4'-Oxybis(benzoyl))bis(azanediyl))bis(1-methyl-1H-pyrrole-2,2'-carbonyl))bis(azanediyl))bis(3,1-phenylene))bis(acetyl))bis(azanediyl))diacetic acid]: the IC50 was 1 to 20 µM.
Take `Cn1cc(NC(=O)c2ccc(Oc3ccc(C(=O)Nc4cc(C(=O)Nc5cccc(CC(=O)N[C@@H](CCCCN)C(=O)O)c5)n(C)c4)cc3)cc2)cc1C(=O)Nc1cccc(CC(=O)N[C@@H](CCCCN)C(=O)O)c1` [Compound 36c, (2S,2'S)-2,2'-((2,2'-(((4,4'-((4,4'-oxybis(benzoyl))bis(azanediyl))bis(1-methyl-1H-pyrrole-4,2-diyl-2-carbonyl))bis(azanediyl))bis(3,1-phenylene))bis(acetyl))bis(azanediyl))bis(6-aminohexanoic acid) dihydrochloride]: the IC50 was in the range of 1 to 20 µM.
The value for `C[C@H](NC(=O)Cc1cccc(NC(=O)c2cc(NC(=O)c3ccc(Oc4ccc(C(=O)Nc5cc(C(=O)Nc6cccc(CC(=O)N[C@@H](C)C(=O)O)c6)n(C)c5)cc4)cc3)cn2C)c1)C(=O)O` [Compound 36d, (2S,2'S)-2,2'-((2,2'-(((4,4'-((4,4'-Oxybis(benzoyl))bis(azanediyl))bis(1-methyl-1H-pyrrole-2,2'-carbonyl))bis(azanediyl))bis(3,1-phenylene))bis(acetyl))bis(azanediyl))dipropanoic acid] was 1 to 20 µM.
